# Test results reported in US20120107903A1 (priority 2010, published 2012).
# Target: Ralstonia pickettii 12D FAD dependent oxidoreductase (SEQ ID NO:9), variant QYY, S327Q/S366Y/A473Y (Ralstonia pickettii, UniProt A0ABM9ITV6, A473Y/S327Q/S366Y)
# Type: biochemical
# Conditions: read-out: Km (Mal)
compound,measurement,value
"OC[C@H]1O[C@H](O[C@H]2[C@H](O)[C@@H](O)C(O)O[C@@H]2CO)[C@H](O)[C@@H](O)[C@@H]1O (stereo partly shown) [Mal, maltose]",Km,> 100 mM
